ChEMBL document CHEMBL6134860, “Discovery and optimization of a novel carboxamide scaffold with selective antimalarial activity” (Eur J Med Chem, 2025)

Assays:
Plasmodium falciparum = test: microbe, parasite or virus in culture; assay type: functional, organism-based; conditions: W2, 72 h
[1] = Cytotoxicity against human HepG2 cells measured after 72 hrs by hoechst 33342 staining based imaging assay; assay type: toxicity, cell-based

SMILES	EC50 (Plasmodium falciparum; read-out: EC50) [µM]	EC50 (Plasmodium falciparum; read-out: pEC50 (converted)) [µM]	CC50 at 72 h ([1]; read-out: CC50) [µM]	CC50 at 72 h ([1]; read-out: pCC50 (converted)) [µM]
O=C(Nc1ccc(-c2cc3ccccc3oc2=O)cc1)c1cccc2ccccc12	> 4.05	> 4.07	1.16	1.15
COc1ccc(N(C)C(=O)c2ncn(-c3ccc(Cl)cc3)n2)cc1		1.91	> 10	> 10
CCc1ccc(-n2cnc(C(=O)N(C)c3ccc(Cl)cc3)n2)cc1		0.617	> 10	> 10
CC(=O)c1ccc(NC(=O)c2ncn(-c3ccc(Cl)cc3)n2)cc1	> 10	> 10	> 10	> 10
CCc1ccc(-n2cnc(C(=O)N(C)c3ccc(C)cc3)n2)cc1		0.575	> 10	> 10
CN(C(=O)c1ncc(-c2ccc(Cl)cc2)[nH]1)c1ccc(Cl)cc1	> 7.09	> 7.08	> 10	> 10
O=C(c1ccc(Cl)cc1)c1ncc(-c2ccc(Cl)cc2)o1	> 10000	> 10	> 10	> 10
Cc1ccc(-c2nc(C)c(C(=O)N(C)c3ccc(Cl)cc3)o2)cc1	> 8.87	> 8.91	> 10	> 10
COc1ccc(-n2cnc(C(=O)N(C)c3ccc(C)c(C)c3)n2)cc1	> 10	> 10	> 10	> 10
CCc1ccc(-n2cnc(C(=O)N(C)c3ccc(C)c(C)c3)n2)cc1		2	> 10	> 10
CN(C(=O)c1cn(-c2ccc(Cl)cc2)nn1)c1ccc(Cl)cc1	> 10	> 10	> 10	> 10
Cc1ccc(-n2cnc(C(=O)N(C)c3ccc(C)c(C)c3)n2)cc1	> 6.93	> 6.92	> 10	> 10
Cc1ccc(-n2cnc(C(=O)Nc3ccc(Cl)cc3)n2)cc1	> 10	> 10	> 10	> 10
Cc1cccc(N(C)C(=O)c2ncn(-c3ccc(Cl)cc3)n2)c1	> 4.03	> 4.07	> 10	> 10
Cc1ccc(-c2ncc(C(=O)N(C)c3ccc(Cl)cc3)s2)cc1	> 10	> 10	> 10	> 10
Cc1ccc(C(=O)N(C)c2ncn(-c3ccc(Cl)cc3)n2)cc1		4.27	> 10	> 10
Cc1ccc(-n2cnc(C(=O)N(C)c3cccc(C)c3)n2)cc1	> 2.82	> 2.82	> 10	> 10
Cc1ccc(N(C)C(=O)c2cn(-c3ccc(C)cc3)nn2)cc1	> 10	> 10	> 10	> 10
CN(C(=O)c1ccc(Cl)cc1)c1ncn(-c2ccc(Cl)cc2)n1	> 1.52	> 1.51	> 10	> 10
CN(C(=O)c1ncn(-c2ccc(Cl)cc2)n1)c1ccc(C(F)(F)F)cc1		3.8	> 6.93	> 6.92
COc1ccc(-n2cnc(C(=O)N(C)c3cccc(C)c3)n2)cc1	> 5.77	> 5.75	> 10	> 10
Cc1ccc(-c2nc(C)c(C(=O)N(C)c3ccc(Cl)cc3)s2)cc1	> 4.78	> 4.79	> 10	> 10
Cc1ccc(-c2ncc(C(=O)N(C)c3ccc(Cl)cc3)o2)cc1	> 10	> 10	> 10	> 10
CN(C(=O)c1cnc(-c2ccc(Cl)cc2)o1)c1ccc(Cl)cc1	> 10	> 10	> 10	> 10

SMILES	EC50 (Plasmodium falciparum; read-out: EC50) [µM]	EC50 (Plasmodium falciparum; read-out: pEC50 (converted)) [µM]	CC50 at 72 h ([1]; read-out: CC50) [µM]	CC50 at 72 h ([1]; read-out: pCC50 (converted)) [µM]
O=C(Nc1ccc(F)cc1)c1ncn(-c2ccc(Cl)cc2)n1	> 5.88	> 5.89	> 10	> 10
Cc1ccc(-n2cnc(N(C)C(=O)c3ccc(Cl)cc3)n2)cc1	> 1.8	> 1.82	> 10	> 10
O=C(Nc1ccc(C(F)(F)F)cc1)c1ncn(-c2ccc(Cl)cc2)n1	> 6.44	> 6.46	> 10	> 10
CN(C(=O)c1cncc(-c2ccc(Cl)cc2)c1)c1ccc(Cl)cc1			> 10	> 10
Cc1ccc(-n2cnc(NC(=O)c3ccc(Cl)cc3)n2)cc1	> 2.99	> 3.02	> 10	> 10
CN(C(=O)c1ncn(-c2ccc(Cl)cc2)n1)c1ccc(C(C)(C)C)cc1	> 8.03	> 7.94	> 1.76	> 1.78
COc1ccc(-n2cnc(C(=O)N(C)c3ccc(Cl)cc3)n2)cc1	> 3.86	> 3.89	> 10	> 10
CN(C(=O)c1cc(-c2ccc(Cl)cc2)ccn1)c1ccc(Cl)cc1	0.169	0.17		
CN(C(=O)c1ncn(-c2ccc(Cl)cc2)n1)c1ccccc1	> 13.8	> 13.8	> 10	> 10
Cc1ccc(-n2cnc(C(=O)N(C)c3ccc(Cl)cc3)n2)cc1	1.68	1.7	> 10	> 10
Cc1nc(-c2ccc(Cl)cc2)oc1C(=O)N(C)c1ccc(Cl)cc1	> 4.34	> 4.37	> 10	> 10
Cc1ccc(N(C)C(=O)c2ncn(-c3ccc(C(C)C)cc3)n2)cc1C	> 3.86	> 3.89	> 10	> 10
Cc1ccc(C(=O)Nc2ncn(-c3ccc(Cl)cc3)n2)cc1	> 10	> 10	> 10	> 10
COc1ccc(N(C)C(=O)c2ncn(-c3ccc(C(C)C)cc3)n2)cc1		1.62	> 10	> 10
CCc1ccc(NC(=O)c2ncn(-c3ccc(Cl)cc3)n2)cc1	> 6.93	> 6.92	> 10	> 10
CCc1ccc(-n2cnc(C(=O)N(C)c3ccc(OC)cc3)n2)cc1		0.933	> 10	> 10
COc1ccc(C[C@H](N)C(=O)N[C@H]2[C@@H](O)[C@H](n3cnc4c(N(C)C)ncnc43)O[C@@H]2CO)cc1 [PUROMYCIN]		0.0631		0.646
Cc1ccc(-c2cnc(C(=O)N(C)c3ccc(Cl)cc3)[nH]2)cc1	> 10	> 10	> 10	> 10
O=C(Nc1ncn(-c2ccc(Cl)cc2)n1)c1ccc(Cl)cc1		3.09	> 10	> 10
O=C1c2sc(-c3ccc(Cl)cc3)nc2CN1c1ccc(Cl)cc1	> 10	> 10	> 10	> 10
CC(=O)c1ccc(N(C)C(=O)c2ncn(-c3ccc(Cl)cc3)n2)cc1		2.4	> 10	> 10
Cc1ccc(C(=O)N(C)c2ncn(-c3ccc(C)cc3)n2)cc1	> 3.38	> 3.39	> 10	> 10
CC(C)c1ccc(-n2cnc(C(=O)N(C)c3ccc(Cl)cc3)n2)cc1		0.851	> 10	> 10
[2H]C([2H])([2H])N(C(=O)c1ncc(-c2ccc(Cl)cc2)o1)c1ccc(Cl)cc1	388	0.389		
